Data on 11 compounds can be found in patent publication US20240376097A1, “BCL-2 Inhibitor” (BeiGene Ltd., priority 2020, published 2024).

Assay [1] addresses recombinant human Bcl-2-G101V protein (Homo sapiens (Human), UniProt P10415, G101V). As to the kind of experiment: Bcl-2-G101V TR-FRET Assay. The assay is classed as binding. Conditions: Bcl-2 G101V mutant, TR-FRET; read-out: Biochemical assay (IC50, nM) Bcl-2 G101V. In a few lines: (§1)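 Displacement of ligand from recombinant human Bcl-2-G101V measured by TR-FRET (ex337 nm, em490/520 nm), inhibition derived from the 490/520 ratio across compound titrations. IC50 from four-parameter logistic fit.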
(TR-FRET usually uses a lanthanide donor and a delayed reading to cut background.)

The subject of assay [2] is recombinant human Bcl-2-G101V protein. The experiment in a line: Bcl-2-G101V TR-FRET Assay. Conditions: ratio of biochemical IC50 Bcl-2 G101V / Bcl-2 WT. The assay is classed as binding. The procedure, abridged:
as §1

Assay [3] concerns BCL-2 G101V knock-in cell line H96 (derive from RS4;11). The experiment in a line: Bcl 2-G101V Knock-In RS4;11 Cell Proliferation Assay. The assay is classed as cell-based. Conditions: Homo sapiens, RS4;11 Bcl-2 G101V knock-in clone H96, 48 hrs, CellTiter-GLO, read-out: Cellular proliferation assay (IC50, nM) RS4. In a few lines:
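CellTiter-Glo luminescence after 48 h, 37 °C compound treatment (10 concentrations, maximum 1 μM or 10 μM) gave mean IC50 values. Cells were 50,000 per well of H96, a BCL2-G101V knock-in single clone derived from RS4;11 by Cas9 editing.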
On the technique in general: ATP-based viability assays read luminescence as a measure of living cells.

The target of assay [4] is Recombinant human Bcl-2 protein (Homo sapiens (Human), UniProt P10415). The experiment in a line: Bcl-2 TR-FRET Assay. Conditions: Bcl-2 wild type, TR-FRET; read-out: Biochemical assay (IC50, nM) Bcl-2 WT. The assay is classed as binding. The procedure, abridged:
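TR-FRET read (337 nm excitation, 520/490 nm emission) after 1 h with 0.5 nM FITC-labeled Bak peptide and Tb-cryptate anti-6His antibody. Bcl-2 at 0.05 nM had been pre-incubated 0.5 h with compound. IC50 fitted by four-parameter logistic equation.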

In assay [5] the test system is RS4;11 (BCL-2 dependent acute lymphoblastic leukemia cell line). The experiment in a line: RS4;11 Cell Proliferation Assay. Type of assay: cell-based. The settings on record: Homo sapiens, RS4-11, RS4;11 cells, read-out: Cellular proliferation assay (IC50, nM) RS4. The procedure, abridged:
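Viability measured via CellTiter-Glo luminescence after a 48 h, 37 °C exposure to compounds (10 points, highest 1 μM). Seeding was 50,000 RS4;11 cells per well in 10% FBS RPMI-1640; IC50 given as mean.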

In the case of `CC(C)c1ccccc1[C@@H]1CN(Cc2ccnc3c2OC(C)(C)CO3)CCN1C1CC2(C1)CN(c1ccc(C(=O)NS(=O)(=O)c3ccc(NC[C@H]4CC[C@](C)(O)CC4)c([N+](=O)[O-])c3)c(Oc3cnc4[nH]ccc4c3)c1)C2` [Example 314, 2-((1H-pyrrolo[2,3-b]pyridin-5-yl)oxy)-4-(6-((R)-4-((2,2-dimethyl-2,3-dihydro-[1,4]dioxino[2,3-b]pyridin-8-yl)methyl)-2-(2-isopropylphenyl)piperazin-1-yl)-2-azaspiro[3.3]heptan-2-yl)-N-((4-((((1r,4r)-4-hydroxy-4-methylcyclohexyl)methyl)amino)-3-nitrophenyl)sulfonyl)benzamide], the IC50 came out at 0.13 nM in assay [1], 0.61 nM in assay [3], 0.032 nM in assay [4] and 0.17 nM in assay [5]. For the same compound, the “Ratio of Bcl-2 G101V/WT” value in assay [2] was 4.2.

Regarding `COc1ccc(CN2CCN(C3CC4(C3)CN(c3ccc(C(=O)NS(=O)(=O)c5ccc(NCC6CCOCC6)c([N+](=O)[O-])c5)c(Oc5cnc6[nH]ccc6c5)c3)C4)[C@H](c3ccccc3C(C)C)C2)cc1OC` [Example 173, (R)-2-((1H-pyrrolo[2,3-b]pyridin-5-yl)oxy)-4-(6-(4-(3,4-dimethoxybenzyl)-2-(2-isopropylphenyl)piperazin-1-yl)-2-azaspiro[3.3]heptan-2-yl)-N-((3-nitro-4-(((tetrahydro-2H-pyran-4-yl)methyl)amino)phenyl)sulfonyl) benzamide], the IC50 in assay [1] amounted to 0.11 nM; in assay [3], 0.6 nM; in assay [4], 0.017 nM; in assay [5], 0.18 nM. In addition, the “Ratio of Bcl-2 G101V/WT” value in assay [2] was found to be 6.5.

`CC(C)c1ccccc1C1CN(Cc2cccc3ccoc23)CCN1C1CC2(CCN(c3ccc(C(=O)NS(=O)(=O)c4ccc(NC[C@H]5CC[C@](C)(O)CC5)c([N+](=O)[O-])c4)c(Oc4cnc5[nH]ccc5c4)c3)CC2)C1` (stereo partly shown) [Example 137, 2-((1H-pyrrolo[2,3-b]pyridin-5-yl)oxy)-4-(2-(4-(benzofuran-7-ylmethyl)-2-(2-isopropylphenyl)piperazin-1-yl)-7-azaspiro[3.5]nonan-7-yl)-N-((4-((((1r,4r)-4-hydroxy-4-methylcyclohexyl)methyl)amino)-3-nitrophenyl)sulfonyl)benzamide]: the IC50 in assay [1] was 3.2 nM; in assay [3], 9.6 nM; in assay [4], 0.62 nM; in assay [5], 0.89 nM. In addition, the “Ratio of Bcl-2 G101V/WT” value in assay [2] came to 5.1.

On to `CC(C)c1ccccc1[C@@H]1CN(Cc2ccc3c(c2)OCC3(C)C)CCN1C1CC2(C1)CN(c1ccc(C(=O)NS(=O)(=O)c3ccc(NC[C@H]4CC[C@](C)(O)CC4)c([N+](=O)[O-])c3)c(Oc3cnc4[nH]cc(F)c4c3)c1)C2` [Example 311, 4-(6-((R)-4-((3,3-dimethyl-2,3-dihydrobenzofuran-6-yl)methyl)-2-(2-isopropylphenyl)piperazin-1-yl)-2-azaspiro[3.3]heptan-2-yl)-2-((3-fluoro-1H-pyrrolo[2,3-b]pyridin-5-yl)oxy)-N-((4-((((1r,4r)-4-hydroxy-4-methylcyclohexyl)methyl)amino)-3-nitrophenyl)sulfonyl)benzamide], for which the IC50 in assay [1] was 1.5 nM; in assay [3], 2.3 nM; in assay [4], 0.43 nM; in assay [5] it was 0.42 nM. Also, the “Ratio of Bcl-2 G101V/WT” value in assay [2] came out at 3.4.

Take `COc1ccc(OC2CCN(C3CC4(CCN(c5ccc(C(=O)NS(=O)(=O)c6ccc(NC[C@H]7CC[C@](C)(O)CC7)c([N+](=O)[O-])c6)c(Oc6cnc7[nH]ccc7c6)c5)CC4)C3)C(c3ccccc3C(C)C)C2)cc1` (stereo partly shown) [Example 138, 2-((1H-pyrrolo[2,3-b]pyridin-5-yl)oxy)-N-((4-((((1r,4r)-4-hydroxy-4-methylcyclohexyl)methyl)amino)-3-nitrophenyl)sulfonyl)-4-(2-(2-(2-isopropylphenyl)-4-(4-methoxyphenoxy)piperidin-1-yl)-7-azaspiro[3.5]nonan-7-yl) benzamide]: the IC50 was 1.5 nM in assay [1], 3 nM in assay [3], 0.36 nM in assay [4] and 0.44 nM in assay [5]. For the same compound, in assay [2], the “Ratio of Bcl-2 G101V/WT” value is recorded as 4.1.

As for `COc1cccc(CN2CCN(C3CC4(CCN(c5ccc(C(=O)NS(=O)(=O)c6ccc(NC[C@H]7CC[C@](C)(O)CC7)c([N+](=O)[O-])c6)c(Oc6cnc7[nH]ccc7c6)c5)CC4)C3)C(c3ccccc3C(C)C)C2)c1` (stereo partly shown) [Example 44, 2-((1H-pyrrolo[2,3-b]pyridin-5-yl)oxy)-N-((4-((((1r,4r)-4-hydroxy-4-methylcyclohexyl)methyl)amino)-3-nitrophenyl)sulfonyl)-4-(2-(2-(2-isopropylphenyl)-4-(3-methoxybenzyl)piperazin-1-yl)-7-azaspiro[3.5]nonan-7-yl) benzamide], the IC50 amounted to 0.84 nM in assay [1], 3.31 nM in assay [3], 0.3 nM in assay [4] and 0.5 nM in assay [5]. In addition, in assay [2], the “Ratio of Bcl-2 G101V/WT” value amounted to 2.8.

For `COc1cc(CN2CCN(C3CC4(C3)CN(c3ccc(C(=O)NS(=O)(=O)c5ccc(NC[C@H]6CC[C@](C)(O)CC6)c([N+](=O)[O-])c5)c(Oc5cnc6[nH]cc(F)c6c5)c3)C4)[C@H](c3ccccc3C(C)C)C2)cc2c1OCCC2(C)C` [Example 333, 2-((3-fluoro-1H-pyrrolo[2,3-b]pyridin-5-yl)oxy)-N-((4-((((1r,4r)-4-hydroxy-4-methylcyclohexyl)methyl)amino)-3-nitrophenyl)sulfonyl)-4-(6-((R)-2-(2-isopropylphenyl)-4-((8-methoxy-4,4-dimethylchroman-6-yl)methyl)piperazin-1-yl)-2-azaspiro[3.3]heptan-2-yl) benzamide], the IC50 in assay [1] worked out at 0.37 nM; in assay [3] it was 0.26 nM; in assay [4], 0.11 nM; in assay [5], 0.13 nM. Also, the “Ratio of Bcl-2 G101V/WT” value in assay [2] is given as 3.2.

Regarding `CC(C)c1ccccc1[C@@H]1CN(Cc2cccc3c2OCCO3)CCN1C1CC2(C1)CN(c1ccc(C(=O)NS(=O)(=O)c3ccc(NC[C@H]4CC[C@](C)(O)CC4)c([N+](=O)[O-])c3)c(Oc3cnc4[nH]ccc4c3)c1)C2` [Example 149a, 2-((1H-pyrrolo[2,3-b]pyridin-5-yl)oxy)-4-(6-((R)-4-((2,3-dihydrobenzo[b][1,4]dioxin-5-yl)methyl)-2-(2-isopropylphenyl)piperazin-1-yl)-2-azaspiro[3.3]heptan-2-yl)-N-((4-((((1r,4r)-4-hydroxy-4-methylcyclohexyl)methyl)amino)-3-nitrophenyl)sulfonyl)benzamide], the IC50 was determined as 0.27 nM in assay [1], 0.67 nM in assay [3], 0.11 nM in assay [4] and 0.17 nM in assay [5]. Further, the “Ratio of Bcl-2 G101V/WT” value in assay [2] is 2.6.

Turning to `CCc1ccc(CN2CCN(C3CC4(CCN(c5ccc(C(=O)NS(=O)(=O)c6ccc(NC[C@H]7CC[C@](C)(O)CC7)c([N+](=O)[O-])c6)c(Oc6cnc7[nH]ccc7c6)c5)CC4)C3)C(c3ccccc3C(C)C)C2)cc1` (stereo partly shown) [Example 153], the IC50 in assay [1] was 2.7 nM; in assay [3], 6.48 nM; in assay [4], 0.6 nM; in assay [5], 0.75 nM. In addition, in assay [2], the “Ratio of Bcl-2 G101V/WT” value is listed as 4.4.

Take `COc1cc(CN2CCN(C3CC4(CCN(c5ccc(C(=O)NS(=O)(=O)c6ccc(NC[C@H]7CC[C@](C)(O)CC7)c([N+](=O)[O-])c6)c(Oc6cnc7[nH]cc(F)c7c6)c5)CC4)C3)[C@H](c3ccccc3C(C)C)C2)ccc1C(F)F` [Example 287]: the IC50 in assay [1] came to 2.3 nM; in assay [3], 0.55 nM; in assay [4] it was 0.87 nM; in assay [5], 0.16 nM. The “Ratio of Bcl-2 G101V/WT” value in assay [2] is given as 2.6.

Consider `COc1cnc(CN2CCN(C3CC4(CCN(c5ccc(C(=O)NS(=O)(=O)c6ccc(NC[C@H]7CC[C@](C)(O)CC7)c([N+](=O)[O-])c6)c(Oc6cnc7[nH]ccc7c6)c5)CC4)C3)C(c3ccccc3C(C)C)C2)cn1` (stereo partly shown) [Example 154, 2-((1H-pyrrolo[2,3-b]pyridin-5-yl)oxy)-N-((4-((((1r,4r)-4-hydroxy-4-methylcyclohexyl)methyl)amino)-3-nitrophenyl)sulfonyl)-4-(2-(2-(2-isopropylphenyl)-4-((5-methoxypyrazin-2-yl)methyl)piperazin-1-yl)-7-azaspiro[3.5]nonan-7-yl)benzamide], for which the IC50 in assay [1] was 0.3 nM; in assay [3], 2.22 nM; in assay [4], 0.05 nM; in assay [5] it was 0.38 nM. Further, in assay [2], the “Ratio of Bcl-2 G101V/WT” value was 6.
